In BindingDB's records for patent US20250034165 (Chia Tai Tianqing Pharmaceutical Group, 2025):

Legend:
[1] = target: Epidermal growth factor receptor (Homo sapiens, UniProt P00533); assay: Inhibitory Activity for EGFR (WT) Kinase
Method: A 50 ng/μL EGFR (WT, Carna) stock solution was diluted with a kinase buffer (50 mM HEPES, 10 mM MgCl2, 2 mM DTT, 1 mM EGTA, 0.01% Tween 20), and 6 μL of 1.67× working solution at 0.005 ng/μL (final concentration: 0.003 ng/μL) was added to each well. Different compounds dissolved in DMSO were added to the wells using a nanoliter pipettor, resulting in the final concentrations of the compounds of 100 nM to 0.0244 nM (4-fold gradient for 7 concentrations in total), and blank control wells (without enzyme) and negative control wells (with enzyme, plus vehicle DMSO) were set, 2 replicate wells for each concentration. After enzyme was reacted with the compound or vehicle for 30 min, 5×ATP at 25 μM (final concentration: 5 μM, Sigma) prepared with a kinase buffer was mixed with 5× substrate at 0.5 μM (final concentration: 0.1 μM, ULight-poly GT, PerkinElmer) at a ratio of 1:1 (v:v), and the mixture was added to each well at 4 μL/well. After being sealed with a film, the plate was incubated at room temperature for 2 h, and then 5 μL of 4×EDTA at 40 mM (final concentration: 10 mM) was added to each well. After the plate was incubated for 5 min at room temperature, 5 μL of 4× detection reagent at 8 nM (final concentration: 2 nM, Eu-anti-phospho-tyrosine antibody, PerkinElmer) was added to each well.

[2] = target: Epidermal growth factor receptor [T790M,C797S,L858R] (UniProt P00533, C797S/L858R/T790M); assay: Inhibitory Activity for EGFR (L858R/T790M/C797S) Kinase
Sequence of Epidermal growth factor receptor [T790M,C797S,L858R] (P00533 25-1210 T790M/C797S/L858R limits assumed): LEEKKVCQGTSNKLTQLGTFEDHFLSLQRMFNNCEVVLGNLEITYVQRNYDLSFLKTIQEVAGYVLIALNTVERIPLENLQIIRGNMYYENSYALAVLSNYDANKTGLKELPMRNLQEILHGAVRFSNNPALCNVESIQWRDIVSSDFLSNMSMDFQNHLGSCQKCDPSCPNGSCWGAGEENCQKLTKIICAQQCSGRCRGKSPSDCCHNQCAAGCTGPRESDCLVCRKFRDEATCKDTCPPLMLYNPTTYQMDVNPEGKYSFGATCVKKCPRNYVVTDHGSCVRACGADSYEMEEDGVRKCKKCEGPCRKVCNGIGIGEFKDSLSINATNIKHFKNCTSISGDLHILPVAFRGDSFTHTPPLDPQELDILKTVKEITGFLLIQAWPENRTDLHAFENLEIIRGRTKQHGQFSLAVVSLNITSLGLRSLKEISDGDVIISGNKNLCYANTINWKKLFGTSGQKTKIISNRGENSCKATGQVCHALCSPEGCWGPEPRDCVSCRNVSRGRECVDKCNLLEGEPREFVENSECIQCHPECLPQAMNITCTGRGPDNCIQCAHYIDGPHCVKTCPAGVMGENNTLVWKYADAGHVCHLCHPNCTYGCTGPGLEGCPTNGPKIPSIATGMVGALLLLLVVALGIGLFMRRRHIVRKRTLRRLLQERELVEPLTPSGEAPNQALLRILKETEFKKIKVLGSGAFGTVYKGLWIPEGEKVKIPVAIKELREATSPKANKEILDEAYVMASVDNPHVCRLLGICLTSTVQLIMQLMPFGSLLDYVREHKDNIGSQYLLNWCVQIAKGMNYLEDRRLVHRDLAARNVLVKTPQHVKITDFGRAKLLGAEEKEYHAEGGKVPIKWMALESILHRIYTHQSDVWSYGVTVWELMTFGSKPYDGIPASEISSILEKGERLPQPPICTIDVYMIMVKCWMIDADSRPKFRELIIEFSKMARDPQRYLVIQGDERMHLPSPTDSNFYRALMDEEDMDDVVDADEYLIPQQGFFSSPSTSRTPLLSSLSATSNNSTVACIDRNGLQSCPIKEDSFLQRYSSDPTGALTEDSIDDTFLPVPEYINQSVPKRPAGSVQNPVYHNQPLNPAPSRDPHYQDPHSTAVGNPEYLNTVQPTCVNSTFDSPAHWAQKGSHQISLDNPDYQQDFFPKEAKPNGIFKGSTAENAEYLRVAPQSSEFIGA
Method: (§1) A 50 ng/μL EGFR (L858R/T790M/C797S, BPS) stock solution was diluted with a kinase buffer (50 mM HEPES, 10 mM MgCl2, 2 mM DTT, 1 mM EGTA, 0.01% Tween 20), and 6 μL of 1.67× working solution at 0.00167 ng/μL (final concentration: 0.001 ng/μL) was added to each well. Different compounds dissolved in DMSO were added to wells using a nanoliter pipettor, resulting in the final concentrations of the compounds of 10 nM to 0.0024 nM (4-fold gradient, 7 concentrations in total), and blank control wells (without enzyme) and negative control wells (with enzyme, plus vehicle DMSO) were set, 2 replicate wells for each concentration. After enzyme was reacted with the compound or vehicle for 30 min, 5×ATP at 25 μM (final concentration: 5 μM, Sigma) prepared with a kinase buffer was mixed with 5× substrate at 0.5 μM (final concentration: 0.1 μM, ULight-poly GT, PerkinElmer) at a ratio of 1:1 (v:v), and the mixture was added to each well at 4 μL/well. After being sealed with a film, the plate was incubated at room temperature for 2 h, and then 5 μL of 4×EDTA at 40 mM (final concentration: 10 mM) was added to each well. After the plate was incubated for 5 min at room temperature, 5 μL of 4× detection reagent at 8 nM (final concentration: 2 nM, Eu-anti-phospho-tyrosine antibody, PerkinElmer) was added to each well. After being incubated at room temperature for 1 h, the plate was read using a PerkinElmer Envision multi-mode microplate reader (excitation: 320 nm, emission: 665 nm), and IC50 was calculated by four-parameter fitting.

[3] = target: Epidermal growth factor receptor (EGFR)(L858R)(T790M) (Homo sapiens, UniProt P00533, L858R/T790M); assay: Inhibitory Activity for EGFR (L858R/T790M) Kinase
Sequence of Epidermal growth factor receptor (EGFR)(L858R)(T790M) (P00533 25-1210 T790M/L858R limits assumed): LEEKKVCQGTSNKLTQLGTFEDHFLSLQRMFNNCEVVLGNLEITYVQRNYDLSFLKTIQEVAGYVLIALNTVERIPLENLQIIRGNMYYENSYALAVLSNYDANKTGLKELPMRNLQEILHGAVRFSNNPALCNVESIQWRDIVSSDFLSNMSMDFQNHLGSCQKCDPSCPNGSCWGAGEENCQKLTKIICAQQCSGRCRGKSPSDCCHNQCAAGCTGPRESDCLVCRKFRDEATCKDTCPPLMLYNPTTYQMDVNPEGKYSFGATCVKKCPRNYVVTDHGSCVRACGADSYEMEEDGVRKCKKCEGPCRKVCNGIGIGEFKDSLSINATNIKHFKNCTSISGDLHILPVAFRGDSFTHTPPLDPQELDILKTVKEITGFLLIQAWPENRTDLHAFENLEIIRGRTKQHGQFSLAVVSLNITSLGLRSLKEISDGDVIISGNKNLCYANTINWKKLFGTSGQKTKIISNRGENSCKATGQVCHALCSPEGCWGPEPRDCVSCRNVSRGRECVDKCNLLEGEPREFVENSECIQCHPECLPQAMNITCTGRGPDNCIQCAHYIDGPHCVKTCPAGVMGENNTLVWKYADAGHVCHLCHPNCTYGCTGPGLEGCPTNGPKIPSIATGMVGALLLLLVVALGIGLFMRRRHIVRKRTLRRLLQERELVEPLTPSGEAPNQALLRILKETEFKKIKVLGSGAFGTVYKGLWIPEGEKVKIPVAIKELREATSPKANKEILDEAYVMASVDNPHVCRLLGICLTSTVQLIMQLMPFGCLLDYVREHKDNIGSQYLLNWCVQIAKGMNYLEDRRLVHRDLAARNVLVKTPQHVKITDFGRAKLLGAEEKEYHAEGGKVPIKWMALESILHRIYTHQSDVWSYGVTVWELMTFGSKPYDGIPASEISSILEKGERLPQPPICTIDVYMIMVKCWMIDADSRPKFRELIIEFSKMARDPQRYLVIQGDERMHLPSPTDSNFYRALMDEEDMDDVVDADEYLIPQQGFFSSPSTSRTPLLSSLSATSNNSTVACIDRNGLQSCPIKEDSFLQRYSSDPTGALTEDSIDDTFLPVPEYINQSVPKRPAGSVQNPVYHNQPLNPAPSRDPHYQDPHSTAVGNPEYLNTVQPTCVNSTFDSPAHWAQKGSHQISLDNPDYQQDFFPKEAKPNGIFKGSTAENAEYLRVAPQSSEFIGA
Method: as §1, with “(L858R/T790M, Carna)” for “(L858R/T790M/C797S, BPS)”, “0.004175” for “0.00167”, “0.0025” for “0.001”

Sequence of Epidermal growth factor receptor (P00533 whole entry): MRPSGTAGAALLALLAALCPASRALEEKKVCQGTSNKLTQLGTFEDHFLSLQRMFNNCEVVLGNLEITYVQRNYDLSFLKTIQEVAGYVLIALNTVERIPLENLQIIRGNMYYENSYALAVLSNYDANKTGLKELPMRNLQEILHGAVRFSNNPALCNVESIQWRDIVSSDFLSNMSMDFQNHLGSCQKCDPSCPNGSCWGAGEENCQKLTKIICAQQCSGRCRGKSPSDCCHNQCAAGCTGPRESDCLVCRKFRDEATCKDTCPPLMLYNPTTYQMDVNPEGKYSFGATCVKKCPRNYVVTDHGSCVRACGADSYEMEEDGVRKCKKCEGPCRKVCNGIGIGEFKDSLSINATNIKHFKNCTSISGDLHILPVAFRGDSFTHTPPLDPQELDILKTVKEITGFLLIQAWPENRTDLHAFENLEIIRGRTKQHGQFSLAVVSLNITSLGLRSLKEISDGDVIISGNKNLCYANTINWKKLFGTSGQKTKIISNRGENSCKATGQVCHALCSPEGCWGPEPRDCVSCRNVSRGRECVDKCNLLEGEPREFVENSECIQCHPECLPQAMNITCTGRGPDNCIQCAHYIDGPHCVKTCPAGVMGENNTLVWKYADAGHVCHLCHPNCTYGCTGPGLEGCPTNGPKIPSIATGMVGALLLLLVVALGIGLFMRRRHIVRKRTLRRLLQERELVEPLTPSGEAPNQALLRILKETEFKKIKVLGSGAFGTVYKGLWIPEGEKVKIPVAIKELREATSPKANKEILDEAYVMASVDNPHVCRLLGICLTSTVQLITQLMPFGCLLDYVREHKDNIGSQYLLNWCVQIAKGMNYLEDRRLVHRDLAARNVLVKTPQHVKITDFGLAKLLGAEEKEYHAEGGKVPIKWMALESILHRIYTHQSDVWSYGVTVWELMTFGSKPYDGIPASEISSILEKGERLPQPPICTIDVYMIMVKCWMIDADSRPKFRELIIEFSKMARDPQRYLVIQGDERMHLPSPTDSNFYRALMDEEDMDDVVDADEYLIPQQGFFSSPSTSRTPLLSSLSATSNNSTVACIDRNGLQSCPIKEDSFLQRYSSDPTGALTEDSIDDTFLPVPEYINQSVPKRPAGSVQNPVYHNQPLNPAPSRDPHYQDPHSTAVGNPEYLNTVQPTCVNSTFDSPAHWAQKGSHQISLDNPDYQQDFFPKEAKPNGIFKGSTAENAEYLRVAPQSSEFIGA

IC50 [1] [nM]	IC50 [2] [nM]	IC50 [3] [nM]	SMILES
0.78	0.033	0.03	Cc1cc2cc(n1)-c1cnn(C)c1OCCC[C@@H](C1CC1)CN1/C(=N/C2=O)Nc2ccc(NCCCN(C)C)cc21 [US20250034165, Example 27]
0.95	0.024	0.02	Cc1cc2cc(n1)-c1cnn(C)c1OCCC[C@@H](C1CC1)CN1/C(=N/C2=O)Nc2ccc(N(C)CCN(C)C)cc21 [US20250034165, Example 45]
0.36	0.007	0.01	Cc1cc2cc(n1)-c1cnn(C)c1OCCC[C@@H](C1CC1)CN1/C(=N/C2=O)Nc2cc(NCCCN(C)C)ccc21 [US20250034165, Example 44]
0.77	0.016	0.031	Cc1cc2cc(n1)-c1cnn(C)c1OCCC[C@@H](C1CC1)CN1/C(=N/C2=O)Nc2cc(NC(C)CN(C)C)ccc21 (stereo partly specified) [US20250034165, Example 62]
0.58	0.014	–	Cc1cc2cc(n1)-c1cnn(C)c1OCCC[C@@H](C1CC1)CN1/C(=N/C2=O)Nc2ccc(NCCN3CCCC3)cc21 [US20250034165, Example 82]
13	0.226	0.042	Cc1cc2cc(n1)-c1cnn(C)c1OCCC[C@@H](C1CC1)CN1/C(=N/C2=O)Nc2ccc(NC3CCCC3)cc21 [US20250034165, Example 87]
0.68	0.011	0.013	Cc1cc2cc(n1)-c1cnn(C)c1OCCC[C@@H](C1CC1)CN1/C(=N/C2=O)Nc2cc(NCCN(C)C)ccc21 [US20250034165, Example 42]
1.4	0.021	0.019	Cc1cc2cc(n1)-c1cnn(C)c1OCCC[C@@H](C1CC1)CN1/C(=N/C2=O)Nc2cc(NC3(C)COC3)ccc21 [US20250034165, Example 29]
1.3	0.066	–	Cc1cc2cc(n1)-c1cnn(C)c1OCCC[C@@H](C1CC1)CN1/C(=N/C2=O)Nc2cc(NCCCN)ccc21 [US20250034165, Example 50]
1.9	0.055	0.044	Cc1cc2cc(n1)-c1cnn(C)c1OCCC[C@@H](C1CC1)CN1/C(=N/C2=O)Nc2ccc(OCCN(C)C)cc21 [US20250034165, Example 11]
0.45	–	–	Cc1cc2cc(n1)-c1cnn(C)c1OCCC[C@@H](C1CC1)CN1/C(=N/C2=O)Nc2ccc(NCCN(C)C)cc21 [US20250034165, Example 28]
1.8	–	0.017	Cc1cc2cc(n1)-c1cnn(C)c1OCCC[C@@H](C1CC1)CN1/C(=N/C2=O)Nc2cc(NCCCCN(C)C)ccc21 [US20250034165, Example 51]
0.51	–	0.012	Cc1cc2cc(n1)-c1cnn(C)c1OCCC[C@@H](C1CC1)CN1/C(=N/C2=O)Nc2ccc(NCCN)cc21 [US20250034165, Example 58]
0.4	0.028	–	Cc1cc2cc(n1)-c1cnn(C)c1OCCC[C@@H](C1CC1)CN1/C(=N/C2=O)Nc2cc(NC3(C)CNC3)ccc21 [US20250034165, Example 34]
0.33	–	0.009	Cc1cc2cc(n1)-c1cnn(C)c1OCCC[C@@H](C1CC1)CN1/C(=N/C2=O)Nc2ccc(NC(C)CN(C)C)cc21 (stereo partly specified) [US20250034165, Example 63]
0.2	–	0.016	Cc1cc2cc(n1)-c1cnn(C)c1OCCC[C@@H](C1CC1)CN1/C(=N/C2=O)Nc2ccc(NC3CCN(C)CC3)cc21 [US20250034165, Example 20]

Continued, compound first:

SMILES	IC50 [1] [nM]	IC50 [2] [nM]	IC50 [3] [nM]
Cc1cc2cc(n1)-c1cnn(C)c1OCCC[C@@H](C1CC1)CN1/C(=N/C2=O)Nc2cc(N(C)C3COC3)ccc21 [US20250034165, Example 41]	1.1	0.021	0.018
Cc1cc2cc(n1)-c1cnn(C)c1OCCC[C@@H](C1CC1)CN1/C(=N/C2=O)Nc2ccc(NCCCN3CCCCC3)cc21 [US20250034165, Example 80]	0.56	0.019	0.031
Cc1cc2cc(n1)-c1cnn(C)c1OCCC[C@@H](C1CC1)CN1/C(=N/C2=O)Nc2cc(NC[C@H]3COCCO3)ccc21 [US20250034165, Example 19]	1.8	0.035	–
Cc1cc2cc(n1)-c1cnn(C)c1OCCC[C@@H](C1CC1)CN1/C(=N/C2=O)Nc2cc(NCCN3CCOCC3)ccc21 [US20250034165, Example 3]	0.864	0.022	–
Cc1cc2cc(n1)-c1cnn(C)c1OCCC[C@@H](C1CC1)CN1/C(=N/C2=O)Nc2cc(NCC3CCOCC3)ccc21 [US20250034165, Example 22]	2	0.052	0.04
Cc1cc2cc(n1)-c1cnn(C3CC3)c1OCCC[C@@H](C)CN1/C(=N/C2=O)Nc2cc(NCCN3CCOCC3)ccc21 [US20250034165, Example 5]	3.1	–	0.091
Cc1cc2cc(n1)-c1cnn(C)c1OCCC[C@@H](C1CC1)CN1/C(=N/C2=O)Nc2ccc(NCCCN3CCOCC3)cc21 [US20250034165, Example 81]	0.68	0.027	0.044
Cc1cc2cc(n1)-c1cnn(C)c1OCCC[C@@H](C1CC1)CN1/C(=N/C2=O)Nc2ccc(NCCCN3CCCC3)cc21 [US20250034165, Example 84]	1.2	–	0.1
Cc1cc2cc(n1)-c1cnn(C)c1OCCC[C@@H](C1CC1)CN1/C(=N/C2=O)Nc2cc(N[C@@H]3CCOC3)ccc21 [US20250034165, Example 43]	1.2	0.039	–
Cc1cc2cc(n1)-c1cnn(C)c1OCCC[C@@H](C1CC1)CN1/C(=N/C2=O)Nc2cc(NC3COC3(C)C)ccc21 (stereo partly specified) [US20250034165, Example 30]	2.8	0.12	0.13
Cc1cc2cc(n1)-c1cnn(C3CC3)c1OCCC[C@@H](C)CN1/C(=N/C2=O)Nc2ccc(N3CC[C@H](O)C3)cc21 [US20250034165, Example 16]	3.4	0.12	–
Cc1cc2cc(n1)-c1cnn(C)c1OCCC[C@@H](C1CC1)CN1/C(=N/C2=O)Nc2cc(NC3CCN(C(C)C)CC3)ccc21 [US20250034165, Example 47]	0.55	–	0.023
Cc1cc2cc(n1)-c1cnn(C)c1OCCC[C@@H](C1CC1)CN1/C(=N/C2=O)Nc2cc(N[C@@H]3CCCOC3)ccc21 [US20250034165, Example 18]	1.7	0.051	–
Cc1cc2cc(n1)-c1cnn(C)c1OCCC[C@@H](C1CC1)CN1/C(=N/C2=O)Nc2ccc(N3CC[C@H](O)C3)cc21 [US20250034165, Example 21]	2.4	0.075	–
Cc1cc2cc(n1)-c1cnn(C3CC3)c1OCCC[C@@H](C)CN1/C(=N/C2=O)Nc2cc(NC[C@H]3COCCO3)ccc21 [US20250034165, Example 14]	4	–	0.11
Cc1cc2cc(n1)-c1cnn(C)c1OCCC[C@@H](C1CC1)CN1/C(=N/C2=O)Nc2cc(NC3CN(C)C3)ccc21 [US20250034165, Example 33]	0.47	0.012	–
